Laboratory results reported in US20050020565A1, “CCK-1 receptor modulators” (priority 2003, published 2005).

First: COc1ccc(-n2nc(C[C@H](C(=O)[O-])c3cccc(C)c3)cc2-c2ccc(Cl)c(Cl)c2)cc1.[Na+] (stereo in doubt) [Example 505]
Second: CON(C)C(=O)c1ccc(Cl)c(Cl)c1 [Example 511, 3,4-Dichloro-N-methoxy-N-methyl-benzamide]
The melting point of the first is higher: 280 to 285 °C for the first, 39.5 to 43.2 °C for the second.

For COc1ccc(-n2nc(C[C@H](C(=O)[O-])c3cccc(C)c3)cc2-c2ccc(Cl)c(Cl)c2)cc1.[Na+] (stereo in doubt) [Example 1], the melting point was 295.5 to 297.5 °C.
